Residues, ends and D or L forms follow the SMILES beside them. No end group written: not given here.
Columns and labels:
[1] = target: T1, FcεRI molecules on RBL-2H3 cells (Rattus norvegicus, UniProt P12371+P13386); experiment: Homo-FRET between FITC-IgE and TRITC-IgE on RBL-2H3 cells (flow cytometry); format: cell-based; details: dE = (E/E[control] − 1) × 100; for dE % (Dose 1): Dose 1: C3a 30 μM, C3a2 110 μM, C3a5 110 μM, C3a9 290 μM, C3a14-P 250 μM; for dE % (Dose 2): Dose 2: C3a 70 μM, C3a2 270 μM, C3a5 270 μM, C3a9 670 μM, C3a14-P 630 μM
T1 construct: targeting FcεRI molecules on RBL-2H3 cells; endogenous in cells; host or cells: RBL-2H3
T1 sequence (P12371 24-245): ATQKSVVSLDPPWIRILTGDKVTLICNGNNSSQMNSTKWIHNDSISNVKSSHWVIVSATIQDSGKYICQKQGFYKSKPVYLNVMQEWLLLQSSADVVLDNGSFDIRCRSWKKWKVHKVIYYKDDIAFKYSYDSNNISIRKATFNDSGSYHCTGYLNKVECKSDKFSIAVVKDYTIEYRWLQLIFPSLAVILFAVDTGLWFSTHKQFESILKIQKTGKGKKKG
T1 sequence (P13386 1-243): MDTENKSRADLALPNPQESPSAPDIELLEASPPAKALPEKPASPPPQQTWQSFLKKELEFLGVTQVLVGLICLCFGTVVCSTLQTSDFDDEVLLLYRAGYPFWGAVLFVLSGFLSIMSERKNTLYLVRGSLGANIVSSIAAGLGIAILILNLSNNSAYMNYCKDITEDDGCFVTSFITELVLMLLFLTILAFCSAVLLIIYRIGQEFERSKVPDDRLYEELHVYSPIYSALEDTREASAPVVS
T1 sequence (P20411 19-86 partner): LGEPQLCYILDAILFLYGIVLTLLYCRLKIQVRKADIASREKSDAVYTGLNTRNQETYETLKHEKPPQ
Procedure: The Forster-type resonance energy transfer between FITC-IgE and TRITC-IgE targeting FcεRI molecules on RBL-2H3 cells was measured (at 1:1 donor-acceptor ratio) by flow cytometry using a BectonDickinson FACStar Plus flow cytometer.

RBL-2H3 cells [2] = experiment: Inhibition of antigen-induced (IgE-mediated) β-hexosaminidase secretion by RBL-2H3 cells; format: cell-based, rat; details: for inhibition of antigen-induced / IgE-dependent degranulation (β-hexosaminidase release): RBL-2H3 cells, result in words
Procedure: Cells. Rat mucosal mast cells, subline RBL-2H3 (Barsumian et al, 1981) were maintained in Eagle's MEM with Earle's salts supplemented by 10% FCS, 2 mM glutamine and antibiotics in a humidified atmosphere with 7% CO2 at 37° C. Secretory Response of Mast Cells. Mediator secretion by mast cells in response to stimulation by FcεRI clustering was monitored by measuring the activity of the granular enzyme β-hexosaminidase. DNP-specific murine IgE mAb, A2 (3 μl ascites) was added to 10^6 cells in 10 ml MEM and incubated in 96-well plates (100 μl suspension/well) for 2 h. Then, monolayers were washed three times with Tyrode's buffer and stimulated with the antigen (DNP11-BSA). […] Following incubation at 37° C. for 1 h, 20 μl of supernatants were taken and incubated with 50 μl of substrate solution (1.3 mg/ml p-nitrophenyl-N-acetyl-β-D-glucosamine in 0.1 M sodium citrate, pH 4.5) at 37° C. for 45 min. The reaction was terminated by the addition of 150 μl of 0.2 M glycine, pH 10.7, and the optical density of the samples was measured at 405 nm. Results of one representative experiment out of four yielding similar results are presented as percent of the total cell content of the enzyme minus the basal secreted activity. […] Degranulation of the cells was monitored by measuring the activity of the enzyme β-hexosaminidase released into the supernatants after stimulation for 1 h at 37° C. and are presented as net percentages of the cells' total β-hexosaminidase activity.

[3] = system: Ovalbumin-Sensitized Guinea Pig Model; experiment: Anaphylactic shock in ovalbumin-sensitized guinea pig model (death, respiratory parameters); format: in vivo; details: except for transient changes in respiratory parameters
Procedure: Guinea pigs (GPs), weighing 350-400 g (from Charles River, GB) were sensitized to rabbit anti-chicken egg albumin (Sigma) by i.p. injection (0.6 mg/kg, using a solution of 1.5 mg/ml in DDW). Twenty-four hours following sensitization, GPs were challenged with inhaled aerosol of chicken ovalbumin (Sigma). The aerosol was generated from an aqueous solution of 25 mg/ml and aerosolized with air 24 l/min. Exposure duration was 1-3 min, according to the required dose. […] During the challenge the GPs were restrained in plethysmographs and their tidal volume, minute volume and respiration rate parameters were monitored. The GPs that received pretreatment with tire mast cell inhibitor C3a9 treated with aerosolized C3a9 peptide (a solution of 0.25 mg/ml, aerosolized with air 24 l/min and treated for 10 min.). The treatment ended 5 min before the challenge with OA. It is estimated that under these conditions each GP inhaled about 7 μg of the peptide. Respiratory parameters of the animals were further monitored for 10 min post challenge.
Eight GPs were tested in each group.

[4] = system: IgE-TRITC on RBL-2H3 cells; experiment: FRET between C3a14-P-FITC and IgE-TRITC on RBL-2H3 cells; format: binding, rat
RBL-2H3 cells [5] = experiment: Binding of FITC-labeled C3a14-P to RBL-2H3 cells; design: species or system rat; details: for binding to RBL-2H3 cells: various concentrations, measured after washing / flow cytometry
Procedure: (§1) This supports proximity between the FcεR (IgE receptor) and the peptide.
RBL-2H3 cells were incubated with the peptide at various concentrations and binding was measured after washing the cells.

BMMC = experiment: Binding of FITC-labeled C3a14-P to BMMC (flow cytometry); design: species or system mouse; details: results not shown
Excerpt: as §1

RBL-2H3 cells [6] = details: earlier experiments, cited from earlier work
[7] = target: RBL-2H3 cells (rat mucosal mast cells), binding partner on the cell surface not identified; experiment: fluorescence of washed RBL-2H3 cells, peptide dose 510 µM
[8] = target: RBL-2H3 cells (rat mucosal mast cells), binding partner on the cell surface not identified; experiment: fluorescence of washed RBL-2H3 cells, peptide dose 630 µM
[9] = target: RBL-2H3 cells (rat mucosal mast cells), binding partner on the cell surface not identified; experiment: fluorescence of washed RBL-2H3 cells, peptide dose 250 µM

KKVFLDCCNYITELRRQHAR [C3a5]
dE % (Dose 1) [1]: −65%
dE % (Dose 2) [1]: −78%

SVQLTEKRMDKVGKYPKELR [C3a1, reference compound]
inhibition of antigen-induced / IgE-dependent degranulation (β-hexosaminidase release) (RBL-2H3 cells [2]): had no effect at all

CC[C@H](C)[C@H](NC(=O)[C@H](Cc1ccc(O)cc1)NC(=O)[C@H](CC(N)=O)NC(=O)[C@H](CS)NC(=O)[C@H](CS)NC(=O)[C@@H](N)CC(=O)O)C(=O)N[C@H](C(=O)N[C@@H](CCCNC(=N)N)C(N)=O)[C@@H](C)O [C3a9] (H-DCCNYITR-NH2)
dE % (Dose 1) [1]: −64%
dE % (Dose 2) [1]: −67%
effect of the C3a9 aerosol treatment itself on GPs (respiratory parameters) [3]: not affected by the treatment

C3a14-P-FITC: FITC-labeled peptide C3a14-P (DSSNYITR; also: FITC label, position not given here)
FRET Efficiency E (%) ([4]; cells incubated with amount 20 of C3a14-P-FITC (unit not given)): 33%
FRET Efficiency E (%) ([4]; cells incubated with amount 40 of C3a14-P-FITC (unit not given)): 17%
FRET Efficiency E (%) ([4]; cells incubated with amount 60 of C3a14-P-FITC (unit not given)): 9%
Fluorescence Mean (w/o background) (RBL-2H3 cells [5]; peptide dose 250 μM): 25
Fluorescence Mean (w/o background) (RBL-2H3 cells [5]; peptide dose 510 μM): 74
Fluorescence Mean (w/o background) (RBL-2H3 cells [5]; peptide dose 630 μM): 157
binding to RBL-2H3 cells (RBL-2H3 cells [5]; listed as FITC-15 labeled C3a14-P): showed binding
binding to RBL-2H3 cells (RBL-2H3 cells [5]; listed as FITC-Labeled C3a14-P): specific binding, but no saturation is reached
binding to BMMC (BMMC): showed binding

Cys-Cys-Asn-Tyr-Gly (CCNYG; not fully specified; printed: Cys-Cys-Asn-Tyr-Gly) [C3a13]
inhibition of antigen-induced / IgE-dependent degranulation (β-hexosaminidase release) (RBL-2H3 cells [2]): inhibit IgE-dependent degranulation of RBL-2H3 cells to a similar extent as did C3a2

DSSNYITR [C3a14-P]
dE % (Dose 1) [1]: −72%
dE % (Dose 2) [1]: −97%

DSSNYIR [C3a11, Asp-Ser-Ser-Asn-Tyr-Ile-Arg]
inhibition of antigen-induced / IgE-dependent degranulation (β-hexosaminidase release) (RBL-2H3 cells [2]): inhibit IgE-dependent degranulation of RBL-2H3 cells to a similar extent as did C3a2

CNYITELRRQHARASHLGLAR [C3a2]
dE % (Dose 1) [1]: −101%
dE % (Dose 2) [1]: −130%
inhibition of antigen-induced / IgE-dependent degranulation (β-hexosaminidase release) (RBL-2H3 cells [2]): inhibited in a dose-dependent manner
secretory response when only the peptide was added (RBL-2H3 cells [2]; peptide alone, same range of concentrations, no antigen): No secretory response

B1: C5a: complement-derived peptide C5a (protein, UniProt P01031 678-751, looked up)
C5a anaphylatoxin: TLQKKIEEIAAKYKHSVVKKCCYDGACVNNDETCEQRAARISLGPRCIKAFTECCVVASQLRANISHKDMQLGR
modifications: C5a anaphylatoxin
secretory response when added alone (RBL-2H3 cells [6]; peptide alone (Erdei et al, 1995)): none of the complement-peptides C3a and C5a triggered the secretory response
inhibition of antigen-induced degranulation of RBL-2H3 (RBL-2H3 cells [6]; range of human C3a concentrations (Erdei et al, 1995)): had no effect at all

DSSNYITR-NH2 (also: FITC-labeled, position of label not given here) [FITC-labeled C3a14-P]
Fluorescence Mean (w/o background) [7]: 74
Fluorescence Mean (w/o background) [8]: 157
Fluorescence Mean (w/o background) [9]: 25

From patent publication US6682740B1 (Yeda Research and Development Co. Ltd., priority 1997, dated 2004)
